From PMC10973839, “CHF6297: a novel potent and selective p38 MAPK inhibitor with robust anti-inflammatory activity and suitable for inhaled pulmonary administration as dry powder” (Frontiers in Pharmacology, 2024)
Like-named read-outs stand apart in the source and are kept apart here.

Assays:
BEAS-2B = experiment: TNF-α-evoked IL-8 release; format: cell-based, human; settings: TNF-α 1 ng/mL; compared with the CSE-evoked assay
[1] = test system: IL-1β-induced neutrophil influx and IL-6 in BALF; experiment: IL-1β-induced neutrophilia and IL-6 accumulation in BALF of rats; format: in vivo; settings: for ED50: Rattus norvegicus, Neutrophil
Description: IL-1β is a potent proinflammatory agent that markedly induces lung neutrophilia when administered intratracheally in rats, and p38α MAPK is involved in IL-1β signaling in lung cells ([Laporte et al., 2000]). The dose–response curve and anti-inflammatory duration of action studies were carried out by delivering CHF6297 intratracheally through the DP-4M PennCentury insufflator as micronized dry powder (blended with lactose) at the doses of 0.1, 0.35, and 1 mg/kg, 1 h or 24 h before IL-1β challenge. Four hours after IL-1β challenge, BALF was collected for cell counting and IL-6 quantification.
For the experimental studies performed with IL-1β challenge, the first aliquot of BALF was centrifuged separately: the resulting supernatant was frozen at −80°C for IL-6 ELISA analysis.
Frozen cell-free BALFs were analyzed using an ELISA kit purchased from R&D Systems (Rat IL-6 ELISA Kit; Cat. No. SR6000B, Lot. 307537), according to the manufacturer’s instructions.

[2] = test system: IAV-induced airway neutrophilia in HDM-challenged mice; experiment: Influenza virus A (H3N2)-induced exacerbation in HDM-sensitized mice; format: in vivo, Balb/c mice
[3] = test system: i.v. LPS-induced TNF-α in blood; experiment: Intravenous LPS-induced TNF-α release in rat blood; format: in vivo, rats; settings: 0.3 mg/kg lactose-blended dry powder via inhalation, 2 h before i.v. LPS (0.3 mg/kg)
[4] = Inhalation pharmacokinetics in rats; format: in vivo, male Wistar rats; settings: for Lung Cmax: 30-min nose-only inhalation; for Plasma Tmax: IAD: immediately after dosing; for Lung Tmax: IAD: immediately after dosing (5 min after end of exposure); for half-life: lung, read-out: Lung t1/2 (converted); for Cmax / AUC(0-t): plasma; for AUC(0-t): read-out: Plasma AUClast
Description: Inhalation pharmacokinetics (PK) of CHF6297 as micronised dry powder blended with lactose 20% w/w was investigated in male Wistar rats at 2 dose levels (0.1 and 1 mg/kg) using the nose-only inhalation delivery system (Figure 8). For each PK study, 21 rats were placed in suitable plastic restrainers and connected to the inhalation tower. Inhalation system parameters were set to achieve a nominal dose of 0.1 mg/kg and 1 mg/kg in 30 min of exposure. The particle size and actual dose are given in Supplementary Material (Table 2). At the end of the inhalation period, the animals were returned to their cages. […] Then, lung samples were immediately excised, externally washed with cold saline, accurately weighed, homogenized using a temperature-controlled Precellys homogenizer (Bertin Technologies, France), and stored at −80 °C until analysis.
Plasma and lung samples were analyzed by using an HPLC-MS/MS system, consisting of a 4000 QTRAP mass spectrometer (AB Sciex LLC, Framingham, MA, United States) with an electrospray ionization (ESI) source, coupled to an Agilent 1100 HPLC (Agilent Technologies, Santa Clara, CA, United States). Analyte separation was performed using a Gemini C18 column (Phenomenex Inc., Torrance, CA, United States) and water with 0.1% v/v AcOH in the gradient with acetonitrile with 0.1% v/v AcOH as eluents. Sample preparation was performed by protein precipitation using preassembled filtration devices (Mini-UniPrep Syringeless Filters, 0.45 µm PTFE, Whatman, GE Healthcare, Buckinghamshire, United Kingdom). Aliquots of 50 μL of the sample (plasma or homogenate) were transferred to the bottom part of the device, spiked with 10 μL of the appropriate internal standard solution, and 150 μL of acetonitrile was added. The calibration and quality control samples were prepared by adding 10 µL of the CHF6297 working standard solution in acetonitrile to 50 µL of the blank matrix. After vortex mixing, the obtained mixture was filtered by manual compression of the device, and the filtered solution was diluted with 100 μL of water. The Mini-UniPrep devices were directly placed in the autosampler rack of the HPLC system. Pharmacokinetic evaluation and parameter determination (Cmax, Tmax, AUClast, and t1/2) were performed with Phoenix 64 software (Certara, New Jersey, United States) using non-compartmental analysis. Since the actual dose was within ±5% of the nominal one, the nominal dose was used for PK calculation.

[5] = 0.35 mg/kg i.t., 24 h before IL-1β
[6] = 1 mg/kg i.t., 24 h before IL-1β
[7] = male, Wistar, rat, inhaled or intranasal, 0.1 mg/kg
[8] = male, Wistar, rat, inhaled or intranasal, 1.0 mg/kg

C[C@H]1CCCCN1c1nnc2ccc(O[C@@H]3CC[C@H](NC(=O)Nc4cc(C(C)(C)C)nn4-c4cnn(CCN(C)C)c4)c4ccccc43)cn12 [CHF6297]
potency against IL-8 release evoked by TNF-α (BEAS-2B): comparable potency
IL-6 concentration in BAL fluid ([1]; 0.1 mg/kg i.t., 1 h before IL-1β): 791 ± 131 pg/mL
IL-6 concentration in BAL fluid ([1]; 0.35 mg/kg i.t., 1 h before IL-1β): 302 ± 58.34 pg/mL
IL-6 concentration in BAL fluid [1, 5]: 1,101 ± 253 pg/mL
neutrophils in BALF [1, 5]: 5.5 × 10^6 ± 814 neutrophils
neutrophils in BALF ([1]; 1 mg/kg i.t. dry powder, 1 h before IL-1β): 2.3 × 10^6 ± 234 neutrophils
IL-6 concentration in BAL fluid ([1]; 1 mg/kg i.t., 1 h before IL-1β): 404 ± 108 pg/mL
IL-6 concentration in BAL fluid [1, 6]: 337 ± 84 pg/mL
neutrophils in BALF [1, 6]: 2.98 × 10^6 ± 62 neutrophils
ED50 ([1]; i.t. dry powder, 1 h before IL-1β, read-out: ED50, IL-1β-induced neutrophil influx): 0.22 mg/kg
ED50 ([1]; i.t., IL-1β challenge, read-out: ED50, increase in IL-6 levels in BALF): 0.82 mg/kg
neutrophils in BAL fluid ([2]; 30 μg/kg i.n. twice daily for 3 days): 2.78 ± 0.28 × 10^5 cells/mL
neutrophils in BAL fluid ([2]; 100 μg/kg twice daily for 3 days): 1.29 ± 0.119 × 10^5 cells/mL
effect on TNF-α levels in blood [3]: no significant inhibition of TNF-α levels
Lung AUClast ([4]; 0.1 mg/kg): 42,097 h*ng/g
Lung Cmax ([4]; 0.1 mg/kg): 7,187 ng/g
Plasma Tmax ([4]; 0.1 mg/kg): IAD
Lung Tmax ([4]; 0.1 mg/kg): IAD
Lung Cmax ([4]; 1.0 mg/kg): 54,000 ng/g
Plasma Tmax ([4]; 1.0 mg/kg): IAD
Lung Tmax ([4]; 1.0 mg/kg): IAD
half-life [4, 7]: 10.2 h
half-life [4, 8]: 10.2 h
half-life ([4]; male, Wistar, rat, inhaled, 0.1 mg/kg): 10 h
half-life ([4]; male, Wistar, rat, inhaled, 1.0 mg/kg): 10 h
Kp ([4]; male, Wistar, rat, lung/plasma, inhaled, at the two dose levels (0.1 and 1 mg/kg), read-out: lung/plasma ratio (AUClast lung / AUClast plasma)): ~6000
Cmax [4, 7]: 2.77 ng/mL
AUC(0-t) [4, 7]: 7.32 ng·h/mL
Cmax [4, 8]: 20.6 ng/mL
AUC(0-t) [4, 8]: 60.1 ng·h/mL
